Where a name gives a salt, the structure may show the parent alone.
The compounds below were run against T1, Human renin (Homo sapiens, UniProt P00797) (assay: Measurement of renin inhibition value A (FITC-labelled substrate peptide, capillary electrophoresis)). Settings: test compound 1 μM, renin 4.7 nM, pH 6.0, 37° C., 30 min, read-out: inhibitory activity (%) at 1 μM.
T1 construct: thus to obtain 1.5 mg of a purified product of active type renin (67-406); made in house; host or cells: FreeStyle 293-F cells (transient expression of pcDNA3.1(+)/hREN)
T1 sequence (P00797 67-406): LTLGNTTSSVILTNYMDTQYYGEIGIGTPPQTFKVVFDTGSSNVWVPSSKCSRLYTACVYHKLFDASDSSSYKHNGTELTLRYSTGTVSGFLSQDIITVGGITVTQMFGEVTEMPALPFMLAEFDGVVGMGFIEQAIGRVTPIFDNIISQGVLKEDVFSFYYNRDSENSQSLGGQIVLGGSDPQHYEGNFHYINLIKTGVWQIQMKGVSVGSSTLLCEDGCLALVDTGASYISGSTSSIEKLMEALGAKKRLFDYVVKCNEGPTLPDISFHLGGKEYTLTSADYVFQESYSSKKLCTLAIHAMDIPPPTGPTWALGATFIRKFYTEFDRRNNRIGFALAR
Type: biochemical
Protocol: Human renin was obtained by expressing preprorenin (1-406) in an animal cell, treating the prorenin (24-406) contained in the culture supernatant with trypsin, and taking the active type (67-406).
To 3.6 mg of prorenin (24-406) dissolved in 5.2 ml of 0.1 M Tris-hydrochloric acid (pH 8.0), 12 μg of trypsin (Roche Diagnostics Corp.) was added, and the mixture was allowed to react at 28° C. for 55 min to carry out activation of renin. After the reaction, 0.4 ml of immobilized trypsin inhibitor (Pierce Biotechnology, Inc.) was added to remove the trypsin used in the activation by adsorption. The reaction liquid containing the active type renin was concentrated using Vivaspin 20 (molecular weight cut off 10,000, Vivascience, Inc.), and was diluted with 20 mM Tris-hydrochloric acid (pH 8.0). The diluted liquid was fed to a TSKgel DEAE-5PW column (7.5 mm I.D.×75 mm, Tosoh Corp.) equilibrated with 20 mM Tris-hydrochloric acid (pH 8.0) at a flow rate of 1 ml/min to adsorb the active type renin (67-406). The column was washed with the buffer solution used for the equilibration, and then elution was carried out by means of a sodium chloride linear concentration gradient from 0 M to 0.3 M, thus to obtain 1.5 mg of a purified product of active type renin (67-406).
As a substrate for renin activity measurement, a substrate peptide (FITC-Acp-Asp-Arg-Val-Tyr-Ile-His-Pro-Phe-His-Leu-Val-Ile-His-Gln-Arg-NH2; SEQ ID No.8) wherein the N-terminal of a peptide prepared in reference to a partial sequence (Asp-Arg-Val-Tyr-Ile-His-Pro-Phe-His-Leu-Val-Ile-His-Asn-Glu-NH2; SEQ ID No.7) of human angiotensinogen was bound with epsilon aminocaproic acid (Acp) as a linker and labeled with a fluorescence reagent Fluorescein isothiocyanate (FITC). 2 μl each of the test compound (containing 100% DMSO) was added to each well of a 384-well black plate (Nalge Nunc International Co., Ltd.). Renin was diluted with a buffer solution for reaction (20 mM citric acid-sodium citrate (pH 6.0)) to a concentration of 4.7 nM, and 30 μl each of the dilution was added to each well. The dilution was left to stand at 37° C. for 10 min, and then 8 μl of each of a 25 μM solution of substrate peptide was added to each well to initiate the reaction. The reaction mixture was left to stand at 37° C. for 30 min, and then 40 μl each of a reaction terminating solution [200 mM Tris-hydrochloric acid (pH 8.0), 0.04% Triton-X 100, 0.4% Coating 3 reagent (Caliper Life Sciences Corp.) and 1 μM CGP-29287 (Bachem Holding AG)] was added to each well to terminate the reaction.
The substrate peptide and the product peptide were separated by a microchip type capillary electrophoresis system 250HTS (Caliper Life Sciences Co., Ltd.), and the rate of reaction [(peak height of product)/(peak height of product+peak height of substrate)×100(%)] was calculated from the ratio of the respective peak height of the peptides obtained by fluorimetric detection (excitation wavelength 457 nm, measurement wavelength 530 nm), and was used as an index of the renin activity.
While the reaction rate of the well where 100% DMSO only was added was taken as 0% inhibition rate, and the reaction rate of the well where 10 μM of CGP-29287 was added was taken as 100% inhibition rate, the renin inhibitory activity of the wells where the test compound (containing 100% DMSO) was added was calculated.

Row | SMILES | inhibition at 1 µM [%]
1 | COC(=O)N[C@H]1CCCC[C@@H]1n1cnc(C(=O)N2CCNC[C@H]2Cc2ccccc2)c1-c1ccccc1 [Example 6, Methyl [(1S,2S)-2-(4-{[(2R)-2-benzylpiperazin-1-yl]carbonyl}-5-phenyl-1H-imidazol-1-yl)cyclohexyl]carbamate] | 98
2 | COC[C@]1(O)CCCC[C@H]1n1cnc(C(=O)N2CCNC[C@H]2Cc2cc(F)cc(F)c2)c1-c1ccccc1 [Example 379, (1S,2R)-2-(4-{[(2R)-2-(3,5-Difluorobenzyl)piperazin-1-yl]carbonyl}-5-phenyl-1H-imidazol-1-yl)-1-(methoxymethyl)cyclohexanol hydrochloride] | 99
3 | COC[C@]1(O)CCCC[C@H]1n1cnc(C(=O)N2CCNC[C@H]2CCOc2ccccc2F)c1-c1ccccc1 [Example 389, (1S,2R)-2-[4-({(2R)-2-[2-(2-Fluorophenoxy)ethyl]piperazin-1-yl}carbonyl)-5-phenyl-1H-imidazol-1-yl]-1-(methoxymethyl)cyclohexanol] | 106
4 | COC[C@]1(O)CCCC[C@H]1n1cnc(C(=O)N2CCNC[C@H]2CCOc2ccc(C(=O)NC3CC3)cc2)c1-c1ccccc1 [Example 390, N-Cyclopropyl-4-{2-[(2R)-1-({1-[(1R,2S)-2-hydroxy-2-(methoxymethyl)cyclohexyl]-5-phenyl-1H-imidazol-4-yl}carbonyl)piperazin-2-yl]ethoxy}benzamide] | 105
5 | CCOC(=O)N[C@H]1CCCC[C@@H]1n1cnc(C(=O)N2CCNC[C@H]2Cc2cc(F)cc(F)c2)c1-c1ccccc1 [Example 358, Ethyl [(1S,2S)-2-(4-{[(2R)-2-(3,5-difluorobenzyl)piperazin-1-yl]carbonyl}-5-phenyl-1H-imidazol-1-yl)cyclohexyl]carbamate] | 103
6 | O=C(c1ncn(C2CCCCC2)c1-c1ccccc1)N1CCNC[C@H]1Cc1ccccc1 [Example 349, (2R)-2-Benzyl-1-[(1-cyclohexyl-5-phenyl-1H-imidazol-4-yl)carbonyl]piperazine] | 101
7 | COC[C@]1(O)CCCC[C@H]1n1cnc(C(=O)N2CCNC[C@H]2CCOc2ccc(C(=O)OC)cc2)c1-c1ccccc1 [Example 15, Methyl 4-{2-[(2R)-1-({1-[(1R,2S)-2-hydroxy-2-(methoxymethyl)cyclohexyl]-5-phenyl-1H-imidazol-4-yl}carbonyl)piperazin-2-yl]ethoxy}benzoate] | 96
8 | O=C(c1ncn([C@H]2CCCC[C@H]2O)c1-c1ccccc1)N1CCNC[C@H]1Cc1cc(F)cc(F)c1 [Example 1, (1R,2S)-2-(4-{[(2R)-2-(3,5-Difluorobenzyl)piperazin-1-yl]carbonyl}-5-phenyl-1H-imidazol-1-yl)cyclohexanol hydrochloride] | 96
9 | O=C(c1ncn([C@H]2CCCC[C@H]2O)c1-c1ccccc1)N1CCNC[C@H]1Cc1ccccc1 [Example 352, (1R,2S)-2-(4-{[(2R)-2-Benzylpiperazin-1-yl]carbonyl}-5-phenyl-1H-imidazol-1-yl)cyclohexanol] | 101
10 | COC[C@]1(O)CCCC[C@H]1n1cnc(C(=O)N2CCNC[C@H]2CCn2ncc3ccccc32)c1-c1ccccc1 [Example 391, (1S,2R)-2-[4-({(2R)-2-[2-(1H-Indazol-1-yl)ethyl]piperazin-1-yl}carbonyl)-5-phenyl-1H-imidazol-1-yl]-1-(methoxymethyl)cyclohexanol] | 109
11 | O=C(c1ncn(CC2(O)CCCCC2)c1-c1ccccc1)N1CCNC[C@H]1Cc1ccccc1 [Example 4, 1-[(4-{[(2R)-2-Benzylpiperazin-1-yl]carbonyl}-5-phenyl-1H-imidazol-1-yl)methyl]cyclohexanol] | 99
12 | CCOC(=O)N[C@H]1CCCC[C@@H]1n1cnc(C(=O)N2CCNC[C@H]2Cc2ccccc2)c1-c1ccccc1 [Example 357, Ethyl [(1S,2S)-2-(4-{[(2R)-2-benzylpiperazin-1-yl]carbonyl}-5-phenyl-1H-imidazol-1-yl)cyclohexyl]carbamate] | 100
13 | O=C(c1ncn(C2CCCCC[C@@H]2O)c1-c1ccccc1)N1CCNC[C@H]1Cc1ccccc1 (stereo partly drawn) [Example 7, trans-2-(4-{[(2R)-2-Benzylpiperazin-1-yl]carbonyl}-5-phenyl-1H-imidazol-1-yl)cycloheptanol] | 100

Second part, the compound after the results:

Row | inhibition at 1 µM [%] | SMILES
14 | 109 | COC[C@]1(O)CCCC[C@H]1n1cnc(C(=O)N2CCNC[C@H]2CCOc2ccccc2)c1-c1ccccc1 [Example 387, (1S,2R)-1-(Methoxymethyl)-2-(4-{[(2R)-2-(2-phenoxyethyl)piperazin-1-yl]carbonyl}-5-phenyl-1H-imidazol-1-yl)cyclohexanol dihydrochloride]
15 | 100 | CCOCC1(O)CCCCC1n1cnc(C(=O)N2CCNC[C@H]2Cc2ccccc2)c1-c1ccccc1 (stereo partly drawn) [Example 361, 2-(4-{[(2R)-2-Benzylpiperazin-1-yl]carbonyl}-5-phenyl-1H-imidazol-1-yl)-1-(ethoxymethyl)cyclohexanol]
16 | 99 | COC[C@]1(O)CCCC[C@H]1n1cnc(C(=O)N2CCNC[C@H]2Cc2ccccc2)c1-c1ccccc1 [Example 367, (1S,2R)-2-(4-{[(2R)-2-Benzylpiperazin-1-yl]carbonyl}-5-phenyl-1H-imidazol-1-yl)-1-(methoxymethyl)cyclohexanol dihydrochloride]
17 | 100 | COC[C@]1(O)CCCC[C@H]1n1cnc(C(=O)N2CCNC[C@H]2Cc2ccccc2)c1-c1cccc(F)c1 [Example 383, (1S,2R)-2-[4-{[(2R)-2-Benzylpiperazin-1-yl]carbonyl}-5-(3-fluorophenyl)-1H-imidazol-1-yl]-1-(methoxymethyl)cyclohexanol]
18 | 99 | CSCCCOC[C@@]1(O)CCCC[C@@H]1n1cnc(C(=O)N2CCNC[C@H]2Cc2ccccc2)c1-c1ccccc1 [Example 378, (1R,2S)-2-(4-{[(2R)-2-Benzylpiperazin-1-yl]carbonyl}-5-phenyl-1H-imidazol-1-yl)-1-{[3-(methylthio)propoxy]methyl}cyclohexanol]
19 | 98 | O=C(c1ncn([C@@H]2CCCC[C@@]2(O)CC2CC2)c1-c1ccccc1)N1CCNC[C@H]1Cc1ccccc1 [Example 363, (1R,2R)-2-(4-{[(2R)-2-Benzylpiperazin-1-yl]carbonyl}-5-phenyl-1H-imidazol-1-yl)-1-(cyclopropylmethyl)cyclohexanol hydrochloride]
20 | 100 | COC[C@]1(O)CCCC[C@H]1n1cnc(C(=O)N2CCNC[C@H]2Cc2cccnc2)c1-c1ccccc1 [Example 380, (1S,2R)-1-(Methoxymethyl)-2-(5-phenyl-4-{[(2R)-2-(pyridin-3-ylmethyl)piperazin-1-yl]carbonyl}-1H-imidazol-1-yl)cyclohexanol dihydrochloride]
21 | 99 | CCCCC1(O)CCCCC1n1cnc(C(=O)N2CCNC[C@H]2Cc2ccccc2)c1-c1ccccc1 (stereo partly drawn) [Example 360, 2-(4-{[(2R)-2-Benzylpiperazin-1-yl]carbonyl}-5-phenyl-1H-imidazol-1-yl)-1-butylcyclohexanol hydrochloride]
